Several values for one entry are separate records, joined by “and”; a condition that tells them apart may be missing. Identical values can stand only once.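 Protocol summary: plate cells (96-well), add compound at 5 concentrations, incubate 48 h, interpolate endpoints linearly. The concentration for 50% growth inhibition is given as GI50. TGI marks complete inhibition of growth.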
How the values were obtained:
Assay in all cases: DTP human tumour cell line panel, 48 h
[1] = system: 786-0 renal
[2] = system: A549 NSCLC
[3] = system: ACHN renal
[4] = system: BT-549 breast
[5] = system: CCRF-CEM leukemia
[6] = system: COLO 205 colon
[7] = system: DU-145 prostate
[8] = system: EKVX NSCLC
[9] = system: HCC-2998 colon
[10] = system: HCT-116 colon
[11] = system: HCT-15 colon
[12] = system: HL-60(TB) leukemia
[13] = system: HOP-62 NSCLC
[14] = system: HOP-92 NSCLC
[15] = system: HS 578T breast
[16] = system: HT29 colon
[17] = system: IGROV1 ovarian
[18] = system: K-562 leukemia
[19] = system: KM12 colon
[20] = system: LOX IMVI melanoma
[21] = system: M14 melanoma
[22] = system: MALME-3M melanoma
[23] = system: MDA-MB-231 breast
[24] = system: MDA-MB-435
[25] = system: MOLT-4 leukemia
[26] = system: NCI-H226 lung
[27] = system: NCI-H23 lung
[28] = system: NCI-H460 lung
[29] = system: NCI-H522 lung
[30] = system: NCI/ADR-RES ovarian
[31] = system: OVCAR-4 ovarian
[32] = system: OVCAR-5 ovarian
[33] = system: OVCAR-8 ovarian
[34] = system: PC-3 prostate
[35] = system: RPMI-8226 leukemia
[36] = system: RXF 393 renal
[37] = system: SF-268 CNS
[38] = system: SF-295 CNS
[39] = system: SK-MEL-2 melanoma
[40] = system: SK-MEL-28 melanoma
[41] = system: SK-MEL-5 melanoma
[42] = system: SK-OV-3 ovarian
[43] = system: SN12C renal
[44] = system: SNB-19 CNS
[45] = system: SNB-75 CNS
[46] = system: SR leukemia
[47] = system: SW-620 colon
[48] = system: T-47D breast
[49] = system: TK-10 renal
[50] = system: U251 CNS
[51] = system: UACC-62 melanoma
[52] = system: UO-31 renal
[53] = system: CAKI-1 renal
[54] = system: MCF7 breast
[55] = system: SF-539 CNS
[56] = system: UACC-257 melanoma
[57] = system: A498 renal
[58] = system: OVCAR-3 ovarian

## ClC(Cl)c1nc(-c2ccco2)n2nc(-c3ccccc3)cc2n1
[1]
  GI50: > 23.5 µM
  TGI: > 100 µM
[2]
  GI50: 1.56 µM
  TGI: 6.16 µM
[3]
  GI50: 0.365 µM
  TGI: 2.03 µM
[4]
  GI50: > 100 µM
  TGI: > 100 µM
[5]
  GI50: > 100 µM
  TGI: > 100 µM
[6]
  GI50: 1.15 µM
  TGI: 3.58 µM
[7]
  GI50: 355 nM
  TGI: 1.41 µM
[8]
  GI50: 1.56 µM
  TGI: 5.18 µM
[9]
  GI50: 0.553 µM
  TGI: 1.85 µM
[10]
  GI50: 0.639 µM
  TGI: > 39.3 µM
[11]
  GI50: 0.617 µM
  TGI: > 100 µM
[12]
  GI50: 304 nM
  TGI: 1.69 µM
[13]
  GI50: 0.679 µM
  TGI: 4.5 µM
[14]
  GI50: 0.535 µM
  TGI: 3.64 µM
[15]
  GI50: 2.17 µM
  TGI: 7.46 µM
[16]
  GI50: 0.338 µM
  TGI: 2.16 µM
[17]
  GI50: > 63.1 µM
  TGI: > 100 µM
[18]
  GI50: > 39.1 µM
  TGI: > 100 µM
[19]
  GI50: 0.352 µM
  TGI: 1.71 µM
[20]
  GI50: > 100 µM
  TGI: > 100 µM
[21]
  GI50: > 100 µM
  TGI: > 100 µM
[22]
  GI50: > 100 µM
  TGI: > 100 µM
[23]
  GI50: 0.791 µM
  TGI: 5.02 µM
[24]
  GI50: 2.64 µM
  TGI: > 100 µM
[25]
  GI50: > 100 µM
  TGI: > 100 µM
[26]
  GI50: > 100 µM
  TGI: > 100 µM
[27]
  GI50: 9.81 µM
  TGI: > 100 µM
[28]
  GI50: 0.265 µM
  TGI: 0.844 µM
[29]
  GI50: > 100 µM
  TGI: > 100 µM
[30]
  GI50: 0.801 µM
  TGI: > 100 µM
[31]
  GI50: 5.45 µM
  TGI: > 100 µM
[32]
  GI50: 2.02 µM
  TGI: > 100 µM
[33]
  GI50: 1.62 µM
  TGI: > 100 µM
[34]
  GI50: 1.67 µM
  TGI: 16.2 µM
[35]
  GI50: 0.54 µM
  TGI: > 22.6 µM
[36]
  GI50: 0.528 µM
  TGI: 76.4 µM
[37]
  GI50: 1.98 µM
  TGI: > 100 µM
[38]
  GI50: 1.66 µM
  TGI: 6.13 µM
[39]
  GI50: > 100 µM
  TGI: > 100 µM
[40]
  GI50: 3.76 µM
  TGI: > 100 µM
[41]
  GI50: > 100 µM
  TGI: > 100 µM
[42]
  GI50: 6.76 µM
  TGI: > 100 µM
[43]
  GI50: > 100 µM
  TGI: > 100 µM
[44]
  GI50: 0.998 µM
  TGI: > 100 µM
[45]
  GI50: 0.219 µM
  TGI: 3.07 µM
[46]
  GI50: > 60.2 µM
  TGI: > 100 µM
[47]
  GI50: 0.445 µM
  TGI: > 82.5 µM
[48]
  GI50: 1.47 µM
  TGI: > 100 µM
[49]
  GI50: 4.96 µM
  TGI: > 100 µM
[50]
  GI50: 0.343 µM
  TGI: 2.33 µM
[51]
  GI50: > 100 µM
  TGI: > 100 µM
[52]
  GI50: 1.61 µM
  TGI: > 23.9 µM

## COc1cc(C)c(-c2ccc(OC)c(=O)cc2C)c(OC)c1OC
[1]
  TGI: > 100 µM
[2]
  TGI: > 100 µM
[3]
  TGI: > 100 µM
[53]
  TGI: > 100 µM
[5]
  TGI: > 100 µM
[7]
  TGI: > 100 µM
[8]
  TGI: > 100 µM
[9]
  TGI: > 100 µM
[10]
  TGI: > 100 µM
[11]
  TGI: > 100 µM
[13]
  TGI: > 100 µM
[14]
  GI50: 3.53 µM and 22.4 µM
  TGI: > 100 µM
[15]
  GI50: > 100 µM
  TGI: > 100 µM
[17]
  TGI: > 100 µM
[18]
  TGI: > 100 µM
[19]
  TGI: > 100 µM
[20]
  TGI: > 100 µM
[21]
  TGI: > 100 µM
[22]
  GI50: > 100 µM
  TGI: > 100 µM
[54]
  TGI: > 100 µM
[23]
  TGI: > 100 µM
[25]
  TGI: > 100 µM
[26]
  TGI: > 100 µM
[27]
  TGI: > 100 µM
[28]
  TGI: > 100 µM
[30]
  GI50: > 100 µM
  TGI: > 100 µM
[31]
  GI50: 44.2 µM and > 100 µM
  TGI: > 100 µM
[32]
  TGI: > 100 µM
[33]
  TGI: > 100 µM
[34]
  TGI: > 100 µM
[35]
  TGI: > 100 µM
[36]
  TGI: > 100 µM
[37]
  TGI: > 100 µM
[38]
  TGI: > 100 µM
[55]
  TGI: > 100 µM
[40]
  GI50: > 100 µM
  TGI: > 100 µM
[41]
  TGI: 38.3 µM and > 100 µM
[42]
  TGI: > 100 µM
[43]
  TGI: > 100 µM
[44]
  TGI: > 100 µM
[45]
  GI50: > 100 µM
  TGI: > 100 µM
[46]
  TGI: > 100 µM
[47]
  TGI: > 100 µM
[48]
  TGI: > 100 µM
[49]
  GI50: 66.3 µM and > 100 µM
  TGI: > 100 µM
[50]
  TGI: > 100 µM
[56]
  TGI: > 100 µM
[51]
  TGI: > 100 µM
[52]
  TGI: > 100 µM

## CS(=O)(=O)c1nccc(-c2c(-c3ccc(F)c(OCCc4ccccc4)c3)nc3sccn23)n1
[1]
  GI50: 16.5 µM
  TGI: 30.8 µM
[57]
  GI50: 11.8 µM
  TGI: 24.3 µM
[2]
  GI50: 17.1 µM
  TGI: 33.5 µM
[3]
  GI50: 15.4 µM
  TGI: 28.7 µM
[4]
  GI50: 15.6 µM
  TGI: 30.1 µM
[53]
  GI50: 15.2 µM
  TGI: 28.5 µM
[5]
  GI50: 19.1 µM
  TGI: 45.6 µM
[6]
  GI50: 19.1 µM
  TGI: 37.7 µM
[7]
  GI50: 4300 nM
  TGI: 14.8 µM
[8]
  GI50: 15.8 µM
  TGI: 29.2 µM
[9]
  GI50: 15.4 µM
  TGI: 30.2 µM
[10]
  GI50: 16.3 µM
  TGI: 29.8 µM
[11]
  GI50: 16.2 µM
  TGI: 32.2 µM
[12]
  GI50: 5170 nM
  TGI: 22.2 µM
[13]
  GI50: 17 µM
  TGI: 32.9 µM
[14]
  GI50: 8.62 µM
  TGI: 22.1 µM
[15]
  GI50: 17.2 µM
  TGI: 42.9 µM
[16]
  GI50: 16.7 µM
  TGI: 33.8 µM
[17]
  GI50: 15.4 µM
  TGI: 33.5 µM
[18]
  GI50: 20.4 µM
  TGI: 68.3 µM
[19]
  GI50: 17.3 µM
  TGI: 32.6 µM
[20]
  GI50: 14.9 µM
  TGI: 31.8 µM
[21]
  GI50: 17.7 µM
  TGI: 32.1 µM
[22]
  GI50: 18.2 µM
  TGI: 33.1 µM
[54]
  GI50: 4.29 µM
  TGI: 18.7 µM
[23]
  GI50: 17.6 µM
  TGI: 34.4 µM
[24]
  GI50: 16.7 µM
  TGI: 31 µM
[25]
  GI50: 17.5 µM
  TGI: 39.7 µM
[26]
  GI50: 14.1 µM
  TGI: 27.8 µM
[28]
  GI50: 14 µM
  TGI: 30 µM
[29]
  GI50: 13.5 µM
  TGI: 30.7 µM
[30]
  GI50: 16.8 µM
  TGI: 34.3 µM
[58]
  GI50: 15.4 µM
  TGI: 29 µM
[31]
  GI50: 15.4 µM
  TGI: 29 µM
[32]
  GI50: 19.2 µM
  TGI: 44.8 µM
[33]
  GI50: 16.7 µM
  TGI: 33.2 µM
[34]
  GI50: 17.1 µM
  TGI: 35.6 µM
[35]
  GI50: 20.5 µM
  TGI: 55 µM
[36]
  GI50: 14.4 µM
  TGI: 27.6 µM
[37]
  GI50: 16.4 µM
  TGI: 33.1 µM
[38]
  GI50: 18.5 µM
  TGI: 33.3 µM
[55]
  GI50: 16.3 µM
  TGI: 30.3 µM
[39]
  GI50: 15.8 µM
  TGI: 30.5 µM
[40]
  GI50: 15.2 µM
  TGI: 28.9 µM
[41]
  GI50: 17.2 µM
  TGI: 31.8 µM
[42]
  GI50: 19.9 µM
  TGI: 45.2 µM
[43]
  GI50: 15.9 µM
  TGI: 34.4 µM
[44]
  GI50: 16.2 µM
  TGI: 31.6 µM
[45]
  GI50: 11.8 µM
  TGI: 24 µM
[46]
  GI50: 15.6 µM
  TGI: 40.6 µM
[47]
  GI50: 18.4 µM
  TGI: 35.8 µM
[48]
  GI50: 10.3 µM
  TGI: 25.7 µM
[49]
  GI50: 15.4 µM
  TGI: 29.7 µM
[50]
  GI50: 16.6 µM
  TGI: 30.2 µM
[56]
  GI50: 15 µM
  TGI: 29.6 µM
[51]
  GI50: 17.4 µM
  TGI: 36.7 µM
[52]
  GI50: 14.1 µM
  TGI: 27.1 µM
